Laboratory results taken from US4816490A, “Novel therapeutic use of a derivative of indane dione and the pharmaceutical compositions intended for this use” (priority 1987, dated 1989).

Experiments:
[1] = system: male and female mice of Swiss strain; assay: Acute toxicity after single intraperitoneal administration; format: in vivo; settings: IP
Description: Male and female mice of Swiss strain weighing from 22 to 25 g of body weight were free of pathogen specific organisms (EOPS), stemming from breeding CERJ (53860 LE GENEST (France) and acclimated for at least 8 days in the animalry of the firm.
Except where stipulated to the contrary, in the tables giving the results, 10 animals of the same sex for each dose were housed in cages of MAKROLON (Safi) of 40 cm by 25 cm filled with shaving of wood. Standard feeding for rats and mice, tablets UAR and tap water ad libitum.
The compounds were administered without previous fasting either orally (gastric tubing using a metallic oesophageous sonde) at a rate of 0.5 ml or 1 ml per 20 g of body weight of an aqueous suspension of the test compound in a 3% solution of arabic gum, or intraperitoneally at a rate of 0.5 ml or 1 ml per 20 g of body weight of the test compound suspended in an isotonic saline solution containing 3% of arabic gum.
For 6 days after the single administration and then every day for 15 days.
When necessary, the mean lethal doses (LD 50) were calculated by the method of Behrens and Karber (BK) and Miller and Tainter (MT). The latter allowing to supply with, for the threshold of probability P=0.05 a limit of confidence for the LD 50. Further calculated were the LDo i.e. DMT=maximal doses always tolerated and the LD100 i.e. DMM=minimal doses always lethal.

[2] = French patent 2,382,424; cited from earlier work
[3] = system: atheromatous deposits of the aorta, Wistar rats; assay: Macroscopic examination of aorta atheroma in rats on atheromatogenous diet; format: in vivo, rat
Description: (§1) The method utilized for the test was that, slightly altered of Aubert D. Feraud J. C., Lacaze B., Pepino., Ponak E. et Podesta M. as described in Atherosclerosis, Vol. 20 (1974), p. 263-280 (Experimental Atherogenesis in the Wistar Rat).
(§2) Diet: standard tablets UAE AO 3 enriched in cholesterol (0.5%) and in cholic acid (0.5).
After the studies, all the animals were sacrificed by subtotal puncture of the blood in the abdominal aorta after anesthesia by intravenous sodium Pentobarbital. The hearts, livers, aortas on which the score of atheroma was determined were taken. For this purpose, the aortas were longitudinally cut, then spread to allow a whole insight of the endothelial coating from the aortic valves until the branching of the coeliac stem (lower portion of the thoracic aorta).
Aorta was from an anatomic point of view divided into two parts:
Zone 1: aortic valves-first intercostal arters
Zone 2: first intercostal arters and branching of the coeliac stem
The intensity of the atheromatous deposits was determined according to the following scores:
Score 1: Discrete (<1 mm) and few deposit
Score 2: Numerous and discrete deposits
Score 3: Numerous and marked deposits (<1 mm)
Score 4: Very marked deposits or very numerous deposits but letting some uninfiltrated areas
Score 5: Deposits on the whole epithelium
Two parameters were considered:
the intensity of the observed damages determined according to the previously-given scores.

[4] = system: hyperlipidaemia / atheroma in Wistar rats on atheromatogenous regimen; assay: Biochemical testings in rats on atheromatogenous (cholesterol-rich) diet, including atheroma risk ratios; format: in vivo, rat
Description: as §1
Female rats of Wistar strain, free of specific pathogenic germs (EOPS) stemming from the breeding EVIC-CEBA
Mean body weight: 160-180 g at the start of the test
as §2
15 animals per each batch and by cage in MACROLON (Safi) of 59 cm×38 cm, 5 cm filled with a litter of shavings of wood.
Diet of the animals: the animals were given the atheromatogenous regimen then while maintaining the same regimen, they were given for 4 days 250,000 IU/kg of vitamin D2 dissolved in olive oil (Sterogyl 15H). The compounds to be tested were given thereafter for 4 weeks immediately after the termination of the atheromatogenous regimen.
At the end of these studies the following tests were performed on all surviving animals.
Esterified blood cholesterol
Cholesterol in LDL (estimate)
The total score for each product was obtained by adding each individual scores and allowed the following classification
The protection against the atheromatogenous risk was evaluated using the following ratios: […]

[5] = Anti-inflammatory / analgesic activity; format: in vivo; settings: doses lower than previously disclosed
Procedure: The said 2-[(3,4-dimethoxy-benzoyl)-methyl]-2-hydroxy-1,3-dioxo-Indane has been used in the French patent at a dose of 250 mg/kg to induce an anti-inflammatory threshold effect. Consequently, the dosology disclosed in the French patent for the use in human therapy shall range from 400 to 1200 mg daily.

[6] = same doses, cholesterol-rich diet

COc1ccc(C(=O)CC2(O)C(=O)c3ccccc3C2=O)cc1OC [Compound of the invention, 2-[(3,4-dimethoxy-benzoyl)-methyl]-2-hydroxy-1,3-dioxo Indane]
Symptoms after injection [1]: crawling after the injection then a protracted prostation took place with piloerection and bradypnea cyanosis
Mortality in 10 mice ([1]; 2000 mg/kg, females): 0
Mortality in 10 mice ([1]; 2000 mg/kg, males): 0
Mortality in 10 mice ([1]; 2500 mg/kg, females): 1
Mortality in 10 mice ([1]; 2500 mg/kg, males): 1
Mortality in 10 mice ([1]; 3000 mg/kg, females): 6
Mortality in 10 mice ([1]; 3000 mg/kg, males): 3
Late mortalities ([1]; 3 to 4 g/kg, after 5 to 7 days): generally 1 death per dose for each sex
Mortality in 10 mice ([1]; 3500 mg/kg, females): 8
Mortality in 10 mice ([1]; 3500 mg/kg, males): 5
Mortality in 10 mice ([1]; 4000 mg/kg, females): 10
Mortality in 10 mice ([1]; 4000 mg/kg, males): 8
Mortality in 10 mice ([1]; 4500 mg/kg, females): 10
Mortality in 10 mice ([1]; 4500 mg/kg, males): 10
Mortality in 10 mice ([1]; 5000 mg/kg, females): 10
Mortality in 10 mice ([1]; 5000 mg/kg, males): 10
LD100 (minimal dose always lethal) ([1]; female mice): 4000 mg/kg
LDo (maximal dose always tolerated) ([1]; female mice): 2000 mg/kg
LD100 (minimal dose always lethal) ([1]; male mice): 4500 mg/kg
LDo (maximal dose always tolerated) ([1]; male mice): 2000 mg/kg
Toxicity in comparison with Clofibrate ([1]; single administration): markedly less toxic than Clofibrate
Dose inducing an anti-inflammatory threshold effect [2]: 250 mg/kg
Macroscopical examination total score ([3]; 100 mg/kg): 2.57
Damaged animals, % of decrease in comparison with Controls-Diet ([3]; 100 mg/kg, macroscopical): -30.77%
Damaged animals, percentage ([3]; 100 mg/kg, macroscopical): 69.23%
Damaged animals, score in relation to Clofibrate ([3]; 100 mg/kg, macroscopical): 1.69
Intensity of the damages, % of decrease in comparison with Controls-Diet ([3]; 100 mg/kg, macroscopical): -22.68%
Intensity of the damages, score in relation to Clofibrate ([3]; 100 mg/kg, macroscopical): 0.88
Frequency of macroscopic damages ([3]; cholesterol-rich diet): a lower frequency of macroscopic damages
Intensity of observed damages ([3]; cholesterol-rich diet): a lower intensity of the observed damages
Activity on macroscopic damages vs Clofibrate [3, 6]: more active when evaluating the macroscopic damages
Cholesterol in LDL / Cholesterol in HDL, % in comparison with Controls-Diet ([4]; 100 mg/kg): -36.10%
Total Blood Cholesterol / Cholesterol in HDL, % in comparison with Controls-Diet ([4]; 100 mg/kg): -33.22%
Cholesterol in HDL, variation in comparison to controls-Diet ([4]; 100 mg/kg, 4 weeks): -33.33%
Esterified cholesterol, variation in comparison to controls-Diet ([4]; 100 mg/kg, 4 weeks): -57.70%
Total Blood lipids, variation in comparison to controls-Diet ([4]; 100 mg/kg, 4 weeks): -48.47%
Total blood cholesterol, variation in comparison to controls-Diet ([4]; 100 mg/kg, 4 weeks): -55.47%
Triglycerids, variation in comparison to controls-Diet ([4]; 100 mg/kg, 4 weeks): -25.86%
Cholesterol in LDL, variation in comparison to controls-Diet ([4]; 100 mg/kg, 4 weeks, LDL (estimate)): -57.41%
Atheromatous risk total score ([4]; 100 mg/kg, listed as Compound according to this invention): 0.90
Atheromatous risk total score ([4]; 100 mg/kg, listed as Compound of this invention): 0.90
Activity on the biochemical level vs Clofibrate [4, 6]: as active as Clofibrate on the biochemical level
Anti-inflammatory or analgesic properties at the antilipaemiant doses [5]: does not show anti-inflammatory or analgesic properties
